Values joined by “and” are separate entries in the source; they are usually repeats but may differ in a detail not shown here. Identical values can stand only once. “Also recorded” adds a separate entry of the source.
Experiments:
[1] = tested on: C. formosanus; assay: Laboratory termite test, modified ASTM 3345-74, soil/sand culture, NaOH carrier, blocks not leached; assay type: in vivo; parameters: Termite Attack Rating / Mean Rating (termite attack): scale not given here; settings: for Mean Rating (termite attack): mean of 4 specimens; for Mean Rating (termite attack) / Termite Attack Rating: 4 weeks soil/sand culture; for Termite Attack Rating: single specimen; as to Termite Attack Rating: key: Score 0: No attack; Score 1: Attempted attack; Score 2: Slight attack; Score 3: Average attack; Score 4: Strong attack
Procedure: A further experiment was undertaken according to the modified ASTM 3345-74 test detailed in Example 2 with the following 6 changes to the protocol:
1. The solutions tested were as follows:
2. The incubation substrate was a soil/sand mixture (1:1) to which had been added 75 ml of de-ionised water. This substrate was chosen as being more representative of the laboratory conditions under which the wild caught termites (C. formosanus) were maintained.
3. The treated timber samples were positioned on plastic mesh on top of the soil substrate. This method of placement is that used in European Standard EN 117 and is more representative of the feeding conditions of the wild caught termites maintained in the laboratory.
4. 250 termites were used in each incubation vessel.
5. The wood block specimens were not subjected to a leaching process.
6. Evidence of termite tunneling activity and mortality was determined at completion of the incubation period only (4 weeks) and no examinations were undertaken for surface activity.

[2] = tested on: Macrotermes natalensis; assay: Field exposure of TBBA treated timber samples to an active termite population (based on EN 117); assay type: in vivo; settings: ethanol carrier, 54 days field exposure; for Mean Termite Attack Score (0-4): SD in parenthesis, 3 replicates; as to highest termite attack score out of 3 replicates: key: Score 0: No attack; Score 1: Attempted attack; Score 2: Slight attack; Score 3: Average attack; Score 4: Strong attack
Excerpt: The termiticidal and/or termite repellency effect of TBBA was examined by field exposure of TBBA treated timber samples to an active population of termites (Macrotermes natalensis). Much of the test detail (timber specimen species, dimensions, preservative impregnation method, scoring system etc.) was based on the European laboratory standard EN 117. This standard is used to define the toxic values of wood preservative formulations against wood destroying termites of the species Reticulitermes santonensis.
The TBBA active was formulated as a solvent-borne product for the test. (ethanol carrier). The precise preservative solutions used were 0% (ethanol only), 1% TBBA, 3% TBBA, 5% TBBA, 7% TBBA and 10% TBBA (all w/w).
AU wood block specimens were of Scots pine sapwood (Pinus sylvestris) with dimensions of 50×25×15 mm. All the test blocks were vacuum impregnated with TBBA according to the method of EN 117. Distribution of the treated blocks in the test was as follows:
TS Specimens: to determine the efficacy of the TBBA active (at different concentrations) against termite attack. SCS Specimens: to confirm absence of a termiticidal effect by the TBBA carrier (ethanol). UCS Specimens: to establish the virulence of the field population of termites.
The termite field site was established in Ginginglovu (Zululand, South Africa). The soil type of the area was a Hutton Bush Veldt soil (sandy loam soil). The site was situated within 10 m of an active termite mound on a raised flat platform of soil established some 5 cm above ground level. The test specimens were randomly positioned on this platform and carefully covered with a waterproof flat plastic roof. This plastic roof was covered with soil to allow temperature and humidity conditions within the test zone to remain representative of the locale. The test specimens were left in-situ for a period of 54 days then scored for termite attack according the system defined in European standard EN 117 as follows:
Score 1: Attempted attack

SMILES: CC(C)(c1cc(Br)c(O)c(Br)c1)c1cc(Br)c(O)c(Br)c1 [TBBA, Tetrabromobisphenol A]
- termiticidal and termite repellent activity (conclusion) [1]: significant termiticidal and termite repellent activity
- termite survival / mortality at the end of the test period ([1]; 4 weeks): the majority of the termites were still active at the end of the test period
- Tunneling Activity ([1]; 4 weeks, solution conc. 1%): Yes
- Visible Mortality ([1]; 4 weeks, solution conc. 1%): No
- Tunneling Activity ([1]; 4 weeks, solution conc. 3%): Yes
- Visible Mortality ([1]; 4 weeks, solution conc. 3%): 1-33%
- Tunneling Activity ([1]; 4 weeks, solution conc. 5%): Yes
- Visible Mortality ([1]; 4 weeks, solution conc. 5%): 1-33%
- Tunneling Activity ([1]; 4 weeks, solution conc. 7%): Yes
- Visible Mortality ([1]; 4 weeks, solution conc. 7%): 1-33%
- Tunneling Activity ([1]; 4 weeks, solution conc. 10%): Yes
- Visible Mortality ([1]; 4 weeks, solution conc. 10%): 1-33%
- prevention of termite attack / restriction of termite damage ([1]; all concentrations used (1-10%), 4 weeks): significant attack was prevented by all concentrations; also recorded: a very significant effect in restricting termite damage
- toxic value, upper (lowest concentration which protects the wood) ([1]; mean loading, solution concentration 3% (TBBF) or 1%, not leached): 7.27 kg/m^3
- Mean Rating (termite attack) ([1]; solution conc. 1%): 1.00
- Termite Attack Rating ([1]; solution conc. 1%): 1
- Mean Rating (termite attack) ([1]; solution conc. 3%): 1.00
- Termite Attack Rating ([1]; solution conc. 3%): 1
- Mean Rating (termite attack) ([1]; solution conc. 5%): 1.00
- Termite Attack Rating ([1]; solution conc. 5%): 1
- Mean Rating (termite attack) ([1]; solution conc. 7%): 0.75
- Termite Attack Rating ([1]; solution conc. 7%): 1 and 0
- Mean Rating (termite attack) ([1]; solution conc. 10%): 1.00
- Termite Attack Rating ([1]; solution conc. 10%): 1
- repellent effect (soil covering of test specimens) ([1]; specimens treated with 5, 7 and 10% solutions only partially soil covered): acting as a repellent throughout the trial period
- Mean Termite Attack Score (0-4) ([2]; 1% TBBA (w/w)): 0.00 (0.00)
- highest termite attack score out of 3 replicates ([2]; 1% TBBA): 0
- Mean Termite Attack Score (0-4) ([2]; 3% TBBA (w/w)): 0.00 (0.00)
- highest termite attack score out of 3 replicates ([2]; 3% TBBA): 0
- Mean Termite Attack Score (0-4) ([2]; 5% TBBA (w/w)): 0.00 (0.00)
- highest termite attack score out of 3 replicates ([2]; 5% TBBA): 0
- Mean Termite Attack Score (0-4) ([2]; 7% TBBA (w/w)): 0.33 (0.58)
- highest termite attack score out of 3 replicates ([2]; 7% TBBA): 1
- Mean Termite Attack Score (0-4) ([2]; 10% TBBA (w/w)): 0.00 (0.00)
- highest termite attack score out of 3 replicates ([2]; 10% TBBA): 0

Reference: US20040266885A1, “Wood preservative compositions” (priority 2001, published 2004)
